Results reported in patent publication US20240270739A1, “Heteroaryl Fluoroalkenes As DGK Inhibitors” (Incyte Corporation, priority 2023, published 2024).
pIC50: −log10 of the molar value.

Tests used:
[1] = target: T1, DGKζ (Homo sapiens, UniProt Q13574); assay: In vitro DGKζ inhibition assay (ADP-Glo); format: biochemical; conditions: His-tagged human recombinant enzyme, 0.4 nM DGKζ, 30 μM ATP, 20 μM DLG, 90 minute incubation
T1 construct: His; purchased Signal Chem D30-10H
Experimental: (§1) The DGKα and DGKζ biochemical reactions were performed using His-tagged human recombinant enzymes (Signal Chem, DGKα, #D21-10BH; DGKζ, #D30-10H)) and DLG (Dilauroyl-sn-glycerol) lipid substrate (Signal Chem, #D430-59). ADP-Glo assay was performed using ADP-Glo™ kinase Assay kit (Promega, #V9104). The reactions were carried out in assay buffer containing 40 mM Tris, pH 7.5, 0.1% CHAPS, 0.1% Prionex, 40 mM NaCl, 5 mM MgCl2, 1 mM CaCl2, and 1 mM DTT. DGKα reactions contained 0.1 nM DGKα, 50 μM ATP, and 20 μM DLG. And DGKζ reactions contained 0.4 nM DGKζ, 30 μM ATP, and 20 μM DLG.
(§2) For compound inhibition studies, 40 nL test compound in DMSO was added to wells of white polystyrene plates in 384-well (Greiner, #784075) or 1536-well format (Greiner, #782075). Compounds were added with top concentration of 2 mM with 11 point, 3-fold dilution series. Enzyme solution (contains 2×DGK enzyme concentration in 1× assay buffer) was added to the plate in 2 μL/well volume, followed by 2 μL/well of substrate solution (contains 2× concentration of ATP and DLG substrate in 1× assay buffer). Plates were then centrifuged for 1 min at 1200 RPM and sealed or lidded. For 4 μL reaction volume, test compounds were therefore diluted 100× to final top concentration of […]. After 90 minute incubation, reactions were quenched by addition of 2 μL/well Promega ADP-Glo Reagent, followed by centrifugation and lidding. After 60 min incubation, 2 μL/well Promega Kinase Detection Reagent was added, plates centrifuged, and incubated for 30 min. Plates were then read using Luminescence method on BMG PHERAstar FSX plate reader. Percent inhibition was calculated and IC50s were determined using 4-parameter fit in Genedata Screener. Labcyte Echo acoustic dispenser was used for compound addition, and Formulatrix Tempest liquid handler was used for all reagent dispenses. The compounds of the disclosure were tested in one or more of the assays described above, and the resulting data are shown in Table A.

[2] = target: T2, DGKα (Homo sapiens, UniProt P23743); assay: In vitro DGKα inhibition assay (ADP-Glo); format: biochemical; conditions: His-tagged human recombinant enzyme, 0.1 nM DGKα, 50 μM ATP, 20 μM DLG, 90 minute incubation
T2 construct: His; purchased Signal Chem D21-10BH
T2 sequence (P23743 whole entry): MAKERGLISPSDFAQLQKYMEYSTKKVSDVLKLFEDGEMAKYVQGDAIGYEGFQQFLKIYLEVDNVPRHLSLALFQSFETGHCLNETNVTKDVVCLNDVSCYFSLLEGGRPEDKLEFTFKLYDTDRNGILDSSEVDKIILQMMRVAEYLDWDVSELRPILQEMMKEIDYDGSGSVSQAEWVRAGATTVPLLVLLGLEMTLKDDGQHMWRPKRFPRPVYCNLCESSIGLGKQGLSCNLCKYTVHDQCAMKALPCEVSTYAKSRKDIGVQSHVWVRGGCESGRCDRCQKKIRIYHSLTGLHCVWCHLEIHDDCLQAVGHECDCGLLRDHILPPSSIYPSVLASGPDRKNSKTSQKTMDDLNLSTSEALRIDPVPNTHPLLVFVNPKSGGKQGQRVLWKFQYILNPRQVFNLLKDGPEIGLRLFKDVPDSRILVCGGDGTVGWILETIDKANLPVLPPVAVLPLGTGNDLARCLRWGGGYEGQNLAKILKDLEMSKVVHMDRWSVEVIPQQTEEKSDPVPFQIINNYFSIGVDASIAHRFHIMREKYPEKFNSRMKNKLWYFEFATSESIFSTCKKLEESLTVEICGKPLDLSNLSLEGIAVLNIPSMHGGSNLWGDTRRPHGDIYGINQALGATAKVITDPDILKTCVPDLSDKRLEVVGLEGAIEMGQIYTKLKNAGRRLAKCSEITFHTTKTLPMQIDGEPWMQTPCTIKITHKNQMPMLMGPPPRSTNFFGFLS
Experimental: as §1, §2

T1 sequence (Q13574 whole entry): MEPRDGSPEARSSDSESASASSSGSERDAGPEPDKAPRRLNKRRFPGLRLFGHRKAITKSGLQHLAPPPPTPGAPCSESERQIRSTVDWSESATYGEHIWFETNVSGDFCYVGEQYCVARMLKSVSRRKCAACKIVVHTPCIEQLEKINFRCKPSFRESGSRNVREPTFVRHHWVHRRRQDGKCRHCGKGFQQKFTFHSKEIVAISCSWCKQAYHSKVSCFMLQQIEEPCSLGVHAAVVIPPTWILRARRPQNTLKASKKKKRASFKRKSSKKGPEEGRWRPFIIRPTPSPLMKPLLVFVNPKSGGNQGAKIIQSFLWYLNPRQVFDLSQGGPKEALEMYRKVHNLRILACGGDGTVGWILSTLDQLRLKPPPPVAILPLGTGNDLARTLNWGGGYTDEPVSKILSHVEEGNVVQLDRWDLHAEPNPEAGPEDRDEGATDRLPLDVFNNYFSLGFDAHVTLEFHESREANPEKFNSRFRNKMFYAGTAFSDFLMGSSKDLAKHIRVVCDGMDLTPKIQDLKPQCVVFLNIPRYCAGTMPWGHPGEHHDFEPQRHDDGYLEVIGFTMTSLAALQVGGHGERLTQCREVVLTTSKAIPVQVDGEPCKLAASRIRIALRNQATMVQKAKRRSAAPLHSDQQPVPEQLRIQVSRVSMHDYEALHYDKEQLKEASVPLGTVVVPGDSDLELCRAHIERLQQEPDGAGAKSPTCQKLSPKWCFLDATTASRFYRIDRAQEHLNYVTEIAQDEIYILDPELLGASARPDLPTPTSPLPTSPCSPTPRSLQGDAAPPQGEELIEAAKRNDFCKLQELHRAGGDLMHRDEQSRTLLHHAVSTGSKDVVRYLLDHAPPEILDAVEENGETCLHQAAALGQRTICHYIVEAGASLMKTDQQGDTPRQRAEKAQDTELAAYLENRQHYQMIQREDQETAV

Compound | pIC50 [1] | pIC50 [2]
F/C(=C\c1ccc(Oc2ccccn2)c(C(F)(F)F)c1N1CCCC2(CCN(CC3CC3)CC2)C1)c1ccn(-c2ccnnc2)n1 [Example 16, (Z)-9-(Cyclopropylmethyl)-2-(6-(2-fluoro-2-(1-(pyridazin-4-yl)-1H-pyrazol-3-yl)vinyl)-3-(pyridin-2-yloxy)-2-(trifluoromethyl)phenyl)-2,9-diazaspiro[5.5]undecane] | ≥ 7.70 | ≥ 7.70
F/C(=C\c1ccc(Oc2cccc(F)c2F)c(Cl)c1N1CCCC2(CCN(CC3CC3)CC2)C1)c1ccn(-c2ccnnc2)n1 [Example 22, (Z)-2-(2-Chloro-3-(2,3-difluorophenoxy)-6-(2-fluoro-2-(1-(pyridazin-4-yl)-1H-pyrazol-3-yl)vinyl)phenyl)-9-(cyclopropylmethyl)-2,9-diazaspiro[5.5]undecane] | 6.70 to 7.70 | ≥ 7.70
F/C(=C\c1ccc(Oc2cccc(F)c2F)c(C(F)(F)F)c1N1CCCC2(CN(CC3CC3)C2)C1)c1ccn(-c2ccnnc2)n1 [Example 20, (Z)-2-(Cyclopropylmethyl)-6-(3-(2,3-difluorophenoxy)-6-(2-fluoro-2-(1-(pyridazin-4-yl)-1H-pyrazol-3-yl)vinyl)-2-(trifluoromethyl)phenyl)-2,6-diazaspiro[3.5]nonane] | 6.70 to 7.70 | ≥ 7.70
